# Columns and labels:
# 3T3-F442A preadipocytes = experiment: Northern analysis of 3T3-F442A cells with retroviral ectopic expression of PGC-1; format: cell-based
# Excerpt: To examine directly the ability of PGC-1 to regulate the genes of adaptive thermogenesis, retroviral vectors have been used to express this protein in white fat precursor cells, and 3T3-F442A preadipocytes were then stimulated to differentiate. Briefly, the PGC-1 viral expression vector (pBabe-PGC-1) was constructed by ligating the BamHI-Xhol fragment from pBluescript-PGC-1 plasmid into BamHI/Sall sites of pBabe-puro. Following drug selection, virally infected 3T3F442A-PGC-1 and […] cells lines were grown to confluence in DMEM with 10% BCS. Differentiation of these cells was initiated by culturing them in DMEM insulin. Cells were refed every 2 days with this medium. Specific cells were grown in DMEM with 10% CCS to confluence. […] After these treatments, total RNA was isolated and analyzed.
# To induce UCP-1 expression, 1 μM 8-bromo-cAMP and […] 9-cis-retinoic acid were added to the medium, and total RNA was extracted from the cells 6 hr later. […] The mitochondrial respiratory enzyme cytochrome c-oxidase subunits COX II and IV are encoded in the mitochondrial and nuclear genome, respectively. Both of these mRNAs increase 2- to 3-fold in the cells ectopically expressing PGC-1. Expression of aP2, a white and brown fat cell gene not linked to thermogenesis, and 36B4, a ribosomal protein are shown as a loading control.
# PPARγ = biological target: T1, PPARγ (Mus musculus, UniProt P37238); experiment: In vitro binding of GST-PGC-1 to in vitro-translated nuclear receptor; settings: GST-PGC-1 (aa 36-797) on beads
# T1 construct: made in house; host or cells: receptor: reticulocyte lysate in vitro translation (Promega TNT); GST-PGC-1: E. coli
# T1 sequence (P37238 1-505): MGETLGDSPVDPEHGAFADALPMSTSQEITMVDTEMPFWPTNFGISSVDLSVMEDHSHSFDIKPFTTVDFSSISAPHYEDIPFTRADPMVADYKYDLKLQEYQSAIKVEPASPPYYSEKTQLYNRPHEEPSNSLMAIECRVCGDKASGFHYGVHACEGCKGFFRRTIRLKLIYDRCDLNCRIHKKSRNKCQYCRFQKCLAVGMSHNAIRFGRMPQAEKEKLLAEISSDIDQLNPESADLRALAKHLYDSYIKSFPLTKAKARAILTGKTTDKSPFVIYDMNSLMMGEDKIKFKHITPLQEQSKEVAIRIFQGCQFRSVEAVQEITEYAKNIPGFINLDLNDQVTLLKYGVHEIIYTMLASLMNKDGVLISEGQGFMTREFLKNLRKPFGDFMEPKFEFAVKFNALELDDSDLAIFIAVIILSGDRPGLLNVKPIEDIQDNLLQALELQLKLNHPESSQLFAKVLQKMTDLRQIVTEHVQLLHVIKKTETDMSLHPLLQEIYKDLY
# T1 sequence (O70343 36-797 partner limits assumed): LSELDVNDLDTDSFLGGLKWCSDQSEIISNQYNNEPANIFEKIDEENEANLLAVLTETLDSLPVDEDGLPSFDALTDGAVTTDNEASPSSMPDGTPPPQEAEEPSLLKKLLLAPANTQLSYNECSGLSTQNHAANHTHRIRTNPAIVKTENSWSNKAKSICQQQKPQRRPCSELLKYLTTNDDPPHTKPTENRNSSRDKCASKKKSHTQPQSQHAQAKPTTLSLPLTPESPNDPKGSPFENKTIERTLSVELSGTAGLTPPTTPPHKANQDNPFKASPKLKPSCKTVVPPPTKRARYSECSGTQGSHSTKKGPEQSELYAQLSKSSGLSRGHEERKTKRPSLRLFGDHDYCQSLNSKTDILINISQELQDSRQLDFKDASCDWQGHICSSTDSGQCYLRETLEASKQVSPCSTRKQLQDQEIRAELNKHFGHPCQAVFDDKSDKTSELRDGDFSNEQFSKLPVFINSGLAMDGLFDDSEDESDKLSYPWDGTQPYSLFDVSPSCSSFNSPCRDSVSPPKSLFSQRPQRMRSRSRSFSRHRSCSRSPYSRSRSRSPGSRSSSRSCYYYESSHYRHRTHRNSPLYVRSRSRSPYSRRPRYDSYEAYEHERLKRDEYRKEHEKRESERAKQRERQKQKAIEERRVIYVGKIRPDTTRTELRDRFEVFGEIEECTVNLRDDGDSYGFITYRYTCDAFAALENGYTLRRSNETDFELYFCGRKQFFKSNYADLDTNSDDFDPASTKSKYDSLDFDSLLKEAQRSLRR
# Procedure: These fusion proteins were expressed, and purified from E. coli on beads containing approximately 1 μg of protein (either GST, or alone, or fused to PGC-1), 30 μl was resuspended i the binding buffer (20 mM HEPES [pH 7.7], 75 mM KCl, 0.1 mM EDTA, 2.5 mM MgCl2, 0.05% NP40,2 mM DTT, 10% glycerol).
# The assays were carried out as follows. […] After electrophoresis, fixation, and enhancement, the radiolabeled proteins were visualized by autoradiography.
# 3T3-F442A cells = experiment: Southern blot analysis of mitochondrial DNA in 3T3-F442A cells expressing PGC-1; format: cell-based; settings: cells expressing PGC-1, COX-II cDNA probe
# Procedure: Changes in the cellular content of mitochondrial DNA have been used as a simple biochemical assay for mitochondrial proliferation (Martin et al. (1995) Biochem. J. 308:749-752; Klingenspor et al. (1996) Biochem. J. 316:607-613). To address this possibility, Southern blot analysis of mitochondrial DNA was performed. 3T3-F442A Southern blots were carried out by isolating and processing genomic DNA as described in Maniatis et al. (1989) Molecular Cloning: A Laboratory Manual, 2nd Ed. (Cold Spring Harbor, N.Y.: Cold Spring Harbor Laboratory Press)). 3T3-F442A cells were differentiated as described above. Total cellular DNA was isolated and was digested with NCo I. Ten micrograms of DNA were electrophoresed, and the Southern blot was hybridized using COX-II cDNA as a probe for mitrochondrial DNA.
# The same blots were also probed with cDNA for 36B4, a ribosomal protein encoded in the nucleus. The blot was then stripped and hybridized with the nuclear gene […].
# [1] = biological target: T2, retinoid-X receptor (RXRα) (Homo sapiens, UniProt P19793); experiment: In vitro binding of GST-PGC-1 to in vitro-translated nuclear receptor; settings: with or without ligand addition
# T2 construct: made in house; host or cells: receptor: reticulocyte lysate in vitro translation (Promega TNT); GST-PGC-1: E. coli
# T2 sequence (P19793 1-462): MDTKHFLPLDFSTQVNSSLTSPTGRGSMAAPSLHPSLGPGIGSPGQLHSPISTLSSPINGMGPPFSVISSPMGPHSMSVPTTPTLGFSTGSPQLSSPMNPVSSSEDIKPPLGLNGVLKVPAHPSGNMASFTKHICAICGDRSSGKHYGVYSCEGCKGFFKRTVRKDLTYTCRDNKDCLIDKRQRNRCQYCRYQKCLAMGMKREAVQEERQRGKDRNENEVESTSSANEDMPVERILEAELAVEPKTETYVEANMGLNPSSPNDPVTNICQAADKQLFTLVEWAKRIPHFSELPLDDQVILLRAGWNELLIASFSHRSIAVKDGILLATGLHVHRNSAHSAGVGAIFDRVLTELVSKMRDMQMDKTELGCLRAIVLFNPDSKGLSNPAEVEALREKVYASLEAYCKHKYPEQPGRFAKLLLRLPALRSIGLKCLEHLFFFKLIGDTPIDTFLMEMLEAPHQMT
# Procedure: The assays were carried out as follows.
substance,measurement,setting,value
"PGC-1: mouse PPARγ coactivator 1 protein, SEQ ID NO:2; used as GST fusion or expressed from retroviral vector",mRNA for ATP synthetase,3T3-F442A preadipocytes; cells expressing PGC-1 vs control,increased
same,mRNA for UCP-1,"3T3-F442A preadipocytes; cells expressing PGC-1 vs control 3T3-F442A cells, 8-bromo-cAMP and 9-cis-retinoic acid, 6 hr",significantly induced
same,binding of PGC-1 to PPARγ,PPARγ,interacted with PPARγ
same,mitochondrial DNA content compared to control cells,3T3-F442A cells,twice
same,binding of PGC-1 to RXRα,[1],little or no binding

# — US6525178B2, “PGC-1, a novel brown fat PPARgamma coactivator” (Dana-Farber Cancer Institute, priority 1997, dated 2003)
